Consider three compounds from ChEMBL document CHEMBL1144063, “ent-kaurane diterpenoids from Isodon lungshengensis” (J Nat Prod, 1999).

SMILES strings stand for the structures. Converted amounts (≈) assume the structure as drawn.

For this experiment, the system named is K562. The experiment is described as follows: Cytotoxicity against human K-562 cells by MTT assay. Format: functional, cell-based.
In the case of `C=C1C(=O)[C@@]23CC(=O)[C@@H]4C(C)(C)[C@@H](OC(C)=O)[C@@H](OC(C)=O)[C@H](O)[C@@]4(C)[C@@H]2[C@@H](O)C[C@@H]1C3` [LUNGSHENGENIN G], it took 3.29 mg/L (≈ 7.34 µM) to reach half-maximal inhibition (IC50).

For `C=C1C(=O)[C@]23C[C@H]1C[C@H](O)[C@H]2[C@@]1(C)[C@H]([C@@H](O)C3)C(C)(C)[C@@H](OC(C)=O)[C@@H](OC(C)=O)[C@@H]1O` [LUNGSHENGENIN A], the IC50 (usually the midpoint of a concentration-inhibition curve) stood at 11.7 mg/L (≈ 26 µM).

In the case of `C=C1C(=O)[C@]23C[C@H]1C[C@H](O)[C@H]2[C@]1(C)C[C@H](OC(C)=O)[C@H](OC(C)=O)C(C)(C)[C@H]1[C@@H](OC(C)=O)C3` [LUNGSHENGENIN C], half-maximal inhibition (IC50) was put at 1.14 mg/L (≈ 2.39 µM).
